One assay relates to rhinovirus B14. Put plainly: (§1) Antiviral activity against human rhinovirus-14 (HRV-14) in HeLa-cells using cell assay. In kind it is functional, organism-based, human rhinovirus type 14. Particulars: Rhinovirus B; call rule not given here.
Assay [1] has as its system HeLa. Nature of the assay: Cytotoxicity against HeLa cells was determined by using XTT cytotoxicity assay. The following applies: Homo sapiens, read-out: TC50 (the source's name). The class given is functional. In general terms: Formazan colour is commonly taken as a measure of viable cells.
The subject of assay [2] is HeLa. Put plainly: Antiviral activity against human rhinovirus-16 (HRV-16) in HeLa-cells using cell assay. In kind it is functional, cell-based.
For assay [3], the target named is T1, Human rhinovirus A protease (Human rhinovirus sp., UniProt Q4U254).
T1 sequence (Q4U254 whole entry): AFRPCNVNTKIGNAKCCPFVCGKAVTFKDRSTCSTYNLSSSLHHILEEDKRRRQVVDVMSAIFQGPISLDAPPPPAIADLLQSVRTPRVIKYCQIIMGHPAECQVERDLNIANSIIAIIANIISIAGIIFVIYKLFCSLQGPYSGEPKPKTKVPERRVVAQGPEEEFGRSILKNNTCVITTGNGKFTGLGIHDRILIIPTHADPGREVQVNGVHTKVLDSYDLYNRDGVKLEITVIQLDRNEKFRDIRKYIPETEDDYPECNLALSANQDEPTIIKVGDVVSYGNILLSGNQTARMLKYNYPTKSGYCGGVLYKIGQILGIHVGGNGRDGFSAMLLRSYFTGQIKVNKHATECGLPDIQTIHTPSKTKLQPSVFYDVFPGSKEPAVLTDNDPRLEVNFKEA
Put plainly: Antiviral activity against human rhinovirus-14 (HRV-14) 3C protease using enzyme assay. The class given is functional, rhinovirus B14.

Assay [4] deals with HeLa. The description is as §1. In kind it is functional, cell-based.
The target of assay [5] is T1, Human rhinovirus A protease. Put plainly: Antiviral activity against human rhinovirus-14 (HRV-14) 3C protease using enzyme assay; inactive. In kind it is functional, rhinovirus B14.
The test system of assay [6] is HeLa. Put plainly: Antiviral activity against human rhinovirus-16 (HRV-16) in HeLa-cells using cell assay; inactive. In kind it is functional, cell-based.

This is an account of results in ChEMBL document CHEMBL1136293, “Synthesis and evaluation of tripeptidyl alpha-ketoamides as human rhinovirus 3C protease inhibitors” (Bioorg Med Chem Lett, 2003).

In general, EC50 refers to the concentration at which the effect is half-maximal. What is called Ki is the dissociation constant of the complex between target and ligand, obtained from inhibition or displacement. For `CCCC(NC(=O)C(Cc1ccccc1)NC(=O)[C@@H](NC(=O)OC(C)C)C(C)C)C(=O)C(=O)N[C@@H](C)c1ccccc1` (some centres not stated), the EC50 is 1 µM in the assay on rhinovirus B14 and 10.1 µM in the assay with HeLa [2]. Moreover, the CC50 in the assay with HeLa [1] turned out to be 62 µM. Moreover, affinity in assay [3] was put at a Ki of 0.5 µM.

By IC50 is commonly meant the concentration that inhibits the measured activity by half. A low value points to greater potency. In turn, `CCC[C@H](NC(=O)[C@H](Cc1ccccc1)NC(=O)[C@@H](NC(=O)OC(C)C)C(C)C)C(=O)C(=O)N[C@@H](C)c1ccccc1` yielded an EC50 in the assay on rhinovirus B14 of 0.85 µM. In addition, the CC50 in the assay with HeLa [1] was greater than 100 µM. The same molecule yielded a 50% effective concentration (EC50) in the assay with HeLa [2] of roughly 10 µM. In assay [3], this molecule yielded an IC50 of 0.17 µM and a Ki of 0.17 µM.

The molecule `CCC[C@H](NC(=O)[C@H](Cc1ccccc1)NC(=O)[C@@H](NC(=O)OC(C)C)C(C)C)C(=O)C(=O)N[C@H](C)c1ccccc1` registered an EC50 with rhinovirus B14 of 11.1 µM. The same molecule yielded a Ki in assay [3] of 6.5 µM.

As to `CCC[C@H](NC(=O)[C@H](Cc1ccccc1)NC(=O)[C@@H](NC(=O)OC(C)C)C(C)C)C(=O)C(=O)N[C@@H](C)C1CCCCC1`, the EC50 in the assay on rhinovirus B14 is greater than 20 µM. The CC50 with HeLa [1] was 54.6 µM. The molecule also gave a Ki in assay [3] of 6.5 µM.

Turning to `CCCC(NC(=O)C1CCCN1C(=O)[C@@H](NC(=O)OC(C)C)C(C)C)C(=O)C(=O)N[C@@H](C)c1ccccc1` (some centres not stated), the EC50 with rhinovirus B14 amounted to 10.4 µM; with HeLa [2] it was 43.3 µM. The CC50 with HeLa [1] was greater than 100 µM. Also, the affinity in assay [3] corresponds to a Ki of 17.4 µM.

Molecule `CCC[C@H](NC(=O)[C@H](Cc1ccccc1)NC(=O)[C@@H](NC(=O)OC(C)(C)C)C(C)C)C(=O)N[C@@H](C)c1ccccc1` came in with an EC50 with rhinovirus B14 greater than 20 µM. For the same molecule, the CC50 in the assay with HeLa [1] is greater than 100 µM. For the same molecule, in assay [3], the Ki was 7.4 µM.

`CCC[C@H](NC(=O)[C@H](Cc1ccccc1)NC(=O)[C@@H](NC(=O)OC(C)C)C(C)C)C(=O)C(=O)NCc1ccccc1` showed an EC50 in the assay on rhinovirus B14 of 5.3 µM. This molecule also gave an IC50 in the assay on HeLa [4] of 2.7 µM. Moreover, the CC50 in the assay with HeLa [1] was greater than 100 µM. For the same molecule, in assay [3], the affinity, expressed as Ki, was 4.6 µM.

In the assay on rhinovirus B14, `CCC[C@H](NC(=O)[C@H](Cc1ccccc1)NC(=O)[C@@H](NC(=O)OC(C)(C)C)C(C)C)C(=O)NC[C@H](C)c1ccccc1` displayed an EC50 greater than 15 µM. For the same molecule, the CC50 in the assay on HeLa [1] is greater than 100 µM. This molecule also gave a Ki in assay [3] of 29.1 µM.

As to `CCCC(NC(=O)C(Cc1ccc(F)cc1)NC(=O)[C@@H](NC(=O)OC(C)C)C(C)C)C(=O)C(=O)N[C@@H](C)c1ccccc1` (some centres not stated), the EC50 with rhinovirus B14 worked out at 2.1 µM; with HeLa [2], 37.3 µM. Besides, in the assay on HeLa [1], the CC50 is greater than 100 µM. In assay [3], this molecule had a Ki of 1.36 µM.

With `CCCC(NC(=O)[C@@H]1[C@H]2CC[C@H](F)[C@H]2CN1C(=O)[C@@H](NC(=O)OC(C)C)C(C)C)C(=O)C(=O)N[C@@H](C)c1ccccc1` (some centres not stated), in the assay with rhinovirus B14, the EC50 was 5.8 µM. For the same molecule, the CC50 in the assay with HeLa [1] is 82 µM. In assay [3], the Ki came out at 5.5 µM.

`CCC[C@H](NC(=O)[C@H](Cc1ccccc1)NC(=O)[C@@H](NC(=O)OC(C)(C)C)C(C)C)C(=O)C(=O)N[C@H](C)c1ccccc1`: in the assay on rhinovirus B14, a half-maximal response (EC50) required 1.3 µM. In addition, in the assay with HeLa [1], the CC50 amounted to 30.3 µM. The molecule further gave a Ki in assay [3] of 0.71 µM.

On to `CCCC(NC(=O)C1(NC(=O)[C@@H](NC(=O)OC(C)C)C(C)C)CCCC1)C(=O)C(=O)N[C@@H](C)c1ccccc1` (some centres not stated), for which the EC50 is greater than 20 µM in the assay on rhinovirus B14 and “Not Active” in the assay with HeLa [6]. Further, the inhibitory constant (Ki) result in assay [5] is “Not Active”. Besides, the CC50 with HeLa [1] was greater than 100 µM.

On to `CCCC(NC(=O)[C@@H]1[C@H]2CCC[C@H]2CN1C(=O)[C@@H](NC(=O)OC(C)C)C(C)(C)C)C(=O)C(=O)N[C@@H](C)c1ccccc1` (some centres not stated), for which the concentration giving a half-maximal response (EC50) with rhinovirus B14 is 7.7 µM; in the assay on HeLa [2], 25.7 µM. Moreover, the CC50 with HeLa [1] stood at 57.8 µM.

For `CCCC(NC(=O)[C@@H]1[C@H]2CC[C@H](F)[C@H]2CN1C(=O)[C@@H](NC(=O)OC(C)C)C(C)(C)C)C(=O)C(=O)N[C@@H](C)c1ccccc1` (some centres not stated), the response in the assay with rhinovirus B14 was half-maximal at 10 µM (EC50). Moreover, the CC50 in the assay on HeLa [1] was determined as 60.4 µM. Also, the affinity in assay [3] corresponds to a Ki of 9.8 µM.

`CCCC(NC(=O)[C@@H]1[C@H]2CCC[C@H]2CN1C(=O)[C@@H](NC(=O)OC(C)C)C(C)C)C(=O)C(=O)N[C@@H](C)c1ccccc1` (some centres not stated): the EC50 in the assay with rhinovirus B14 is 2.2 µM; with HeLa [2], roughly 10 µM. Further, the CC50 with HeLa [1] was 65.4 µM. In assay [3], the Ki is 3 µM.
